Test results as given in publication PMC5503536, “Development of [^11C]vemurafenib employing a carbon-11 carbonylative Stille coupling and preliminary evaluation in mice bearing melanoma tumor xenografts” (Oncotarget, 2017).

How the values were obtained:
[1] = system: Colo829 xenograft tumor sections; assay: Autoradiography on Colo829 xenograft sections; type: binding; details: co-incubation with unmodified vemurafenib 100 μM, tracer only = 100%
Method: (§1) To determine the binding potential of [^11C]vemurafenib to tumor tissue expressing BRAF^wt or BRAF^V600E, autoradiography studies on xenograft sections and in vitro cellular uptake studies were performed. Sections of tumor xenografts derived from the aforementioned cell lines were incubated with [^11C]vemurafenib.
(§2) Colo829 and MeWo xenograft sections (10 μm thickness) were pre-treated three times with 5 mM Tris-HCl buffer (pH 7.4) for 5 min.. Sections were dried under a gentle air flow before incubation for 30 min. with [^11C]vemurafenib and the following conditions: (A) 5 mM Tris-HCl, pH 7.4; (B) 5 mM Tris-HCl, pH 7.4 and isotopically unmodified vemurafenib at 100 μM (n = 4 for each incubation condition). Washing was performed using Tris-HCl (3×) followed by dipping in ice cold water. After drying in an air stream, tumor sections were exposed to a phosphor-imaging screen for 15 min. Data was quantified as average signal intensity per surface area and were represented relative to the tracer only (A) conditions, which was set at 100%. Error bars indicate standard deviations. Quantification of binding was performed using ImageQuantTL v8.1.0.0 (GE Healthcare, Buckinghamshire, UK) by drawing regions of interest around the full tumor sections.

[2] = system: MeWo xenograft tumor sections; assay: Autoradiography on MeWo xenograft sections; type: binding; details: co-incubation with unmodified vemurafenib 100 μM, tracer only = 100%
Method: as §1, §2

Colo829 cells = assay: In vitro cell uptake, Colo829; type: cell-based
Method: (§3) To determine binding of [^11C]vemurafenib in vitro to intact tumor cells a cell uptake study was performed by incubation of tumor cells in suspension with [^11C]vemurafenib, followed by removal of the supernatant and washing of the cells with PBS (phosphate buffered saline). […] While in vitro experiments can be of great value to predict tracer target binding, the experiments exclude many of the factors observed in vivo, for PET-tracer validation. Therefore in vivo experiments are of the utmost importance for PET-tracer validation. […]
(§4) Colo829 or MeWo cells (1*10^6) suspended in growth medium were incubated in triplicate in centrifuge tubes at 37°C with 1 MBq of [^11C]vemurafenib (corresponding to 0.02 nmol of vemurafenib) for 30 min. […] All fractions (cells, supernatant and PBS) were counted for radioactivity using a gamma counter (Wallac 1210 Compugamma, PerkinElmer, Waltham, MA, USA) and the cell bound/internalized percentage of [^11C]vemurafenib was determined as the fraction of activity in the cell pellet divided by the total activity (cells, supernatant and PBS) corrected for background (medium only) and vehicle treated conditions.

MeWo cells = assay: In vitro cell uptake, MeWo; type: cell-based
Method: as §3, §4

[3] = Plasma metabolite analysis (in vivo stability); set-up: species or system athymic nu/nu mice; details: for Parent (%): plasma, i.v., non-tumor bearing mice
Method: The cartridge was washed with 5 mL of H2O to collect polar radioactive metabolites.

[4] = system: Colo829 (BRAF^V600E) xenografts; assay: Ex vivo biodistribution, Colo829 xenograft bearing mice; type: in vivo, athymic nu/nu mice; details: 60 min p.i.
Method: (§5) To evaluate the in vivo tumor targeting potential an ex vivo biodistribution study was performed in mice bearing the aforementioned melanoma xenografts. Tumor bearing mice were injected with 20–25 MBq of [^11C]vemurafenib (corresponding to 0.36–0.45 nmol of vemurafenib) and sacrificed 60 minutes post injection. Subsequently organs of interest were excised and counted for activity.
(§6) Nude mice (Athymic nu/nu, Harlan, Horst, The Netherlands) bearing two tumors (obtained by injection of MeWo or Colo829 cells, 2*10^6 per site) of the same xenograft line on their left and right flank, received an injection of 25 MBq [^11C]vemurafenib (corresponding to 0.45 nmol of vemurafenib) via the ocular plexus. The mice were sacrificed and dissected at 60 min. post-injection. Blood, urine, skin, left tumor, right tumor, muscle, heart, colon, lung, liver, kidney and brain were collected, weighed and counted for radioactivity in a gamma counter (Wallac 1210 Compugamma, PerkinElmer, Waltham, MA, USA). Biodistribution data are expressed as percentage of injected dose per gram (%ID/g) of tissue for each organ.

[5] = system: MeWo (BRAF^wt) xenografts; assay: Ex vivo biodistribution, MeWo xenograft bearing mice; type: in vivo, athymic nu/nu mice; details: 60 min p.i.
Method: as §5, §6

[6] = Ex vivo biodistribution, statements made for both xenograft lines; type: in vivo, athymic nu/nu mice
Method: as §5, §6

[7] = system: Colo829 (BRAF^V600E) cells; assay: Cell titer blue cell viability assay, Colo829; type: cell-based; details: Homo sapiens, COLO-829
Method: (§7) Having a reliable synthesis route to obtain [^11C]vemurafenib, cell lines had to be selected to evaluate the tumor targeting potential of [^11C]vemurafenib. Two melanoma cell lines were selected based on reported mutational status of BRAF: Colo829 (BRAF^V600E) and MeWo (BRAF^wt). Both cell lines were analyzed by Fluorescence Activated Cell Sorting (FACS) using a BRAF antibody (recognizing both wild-type and BRAF^V600E) and a BRAF^V600E selective antibody for assessment of target expression (Figure 2A/2B). […] Furthermore, both the cells as well as the xenografts derived from the cell lines were sequenced to confirm the expression of BRAF and the mutational status thereof. […] (V600E) and MeWo cells and xenografts were wild-type. […] So while the BRAF^V600E kinase is sensitive to vemurafenib treatment, it appears that a certain level of mutated protein expression is required for this sensitivity, as both cell lines expressed the mutation to an extent, as determined by FACS. In contrast sequencing only detected the V600E mutation in the Colo829, indicative of higher expression. […]
(§8) Vemurafenib stock solutions of 1 mM in DMSO were prepared and diluted with PBS to a concentration of 10 μM (1% DMSO). […] Finally the fluorescence was measured using a TriStar^2 LB942 plate reader (Berthold Technologies, Bad Wildbad, Germany). […]

MeWo (BRAF^wt) cells = assay: Cell titer blue cell viability assay, MeWo; type: cell-based; details: 120 h incubation, CellTiter-Blue
Method: as §7, §8

[8] = set-up: method as in PMID 23060265; details: phase I trial with 32 patients; cited from earlier work
[9] = set-up: method as in PMID 23060265; details: phase III, vs patients treated with dacarbazine; cited from earlier work
BRAF^V600E cells = system: BRAF^V600E cells; set-up: method as in PMID 20149136; details: cited from earlier work
BRAF^wt cells = system: BRAF^wt cells; set-up: method as in PMID 20149136; details: cited from earlier work
P-gp = details: cited from earlier work
BCRP = details: cited from earlier work

SMILES: CCCS(=O)(=O)Nc1ccc(F)c([11C](=O)c2c[nH]c3ncc(-c4ccc(Cl)cc4)cc23)c1F [[^11C]vemurafenib]
- binding when compared to unblocked conditions [1]: 51.2 ± 11.2%
- binding when compared to unblocked conditions [2]: 65.1 ± 3.1%
- cell bound + internalized fraction (Colo829 cells; 30 min, 37°C, unblocked): 74.3 ± 1.5%
- cell bound + internalized fraction after pretreatment with unmodified vemurafenib (Colo829 cells; blocked): 17.0 ± 2.3%
- cell bound + internalized fraction (MeWo cells; 30 min, 37°C, unblocked): 61.6 ± 8.2%
- cell bound + internalized fraction after pretreatment with unmodified vemurafenib (MeWo cells; blocked): 20.6 ± 0.4%
- intact tracer in plasma (stability) ([3]; 45 minutes after injection): > 95%
- Parent (%) ([3]; 15 min p.i.): 97.8 ± 1.9%
- Parent (%) ([3]; 45 min p.i.): 95.9 ± 4.4%
- Tumor-to-blood ratio ([4]; Colo829 (BRAF^V600E)): 0.27 ± 0.06
- Tumor-to-muscle ratio ([4]; Colo829 (BRAF^V600E)): 0.78 ± 0.18
- Tumor-to-skin ratio ([4]; Colo829 (BRAF^V600E)): 0.90 ± 0.19
- Tumor uptake ([4]; Colo829 tumors, 20–25 MBq): 0.87 ± 0.14 ID/g
- Tumor-to-blood ratio ([5]; MeWo (BRAF^WT)): 0.29 ± 0.19
- Tumor-to-muscle ratio ([5]; MeWo (BRAF^WT)): 0.72 ± 0.21
- Tumor-to-skin ratio ([5]; MeWo (BRAF^WT)): 0.89 ± 0.28
- Tumor uptake ([5]; MeWo tumors, 20–25 MBq): 0.49 ± 0.29 %ID/g
- blood levels ([6]; after 60 minutes, xenograft bearing mice): 2–3 %ID/g
- tumor-to-tissue ratios (muscle, blood, skin), all cases ([6]; both xenograft lines, 60 min p.i.): ≤ 1

SMILES: CCCS(=O)(=O)Nc1ccc(F)c(C(=O)c2c[nH]c3ncc(-c4ccc(Cl)cc4)cc23)c1F [vemurafenib, Vemurafenib]
- IC50 ([7]; Colo829 (BRAF^V600E), 120 h incubation, CellTiter-Blue): 130 nM
- EC50 ([7]; printed in the picture beside the fitted curve, apparently Colo829, read-out: EC50, cell viability curve (Figure 2C)): 130 nM
- IC50, cell viability (MeWo (BRAF^wt) cells): no IC50 was observed
- unconfirmed overall response rate [8]: 81%
- reduction in the risk of death [9]: 63%
- effect on ERK1/2 phosphorylation (BRAF^V600E cells): abolished ERK1/2 phosphorylation
- effect on ERK1/2 and MEK phosphorylation (BRAF^wt cells): rapid phosphorylation of ERK1/2 and MEK
- substrate for ABC-cassette efflux transporter P-gp (P-gp): substrate
- substrate for ABC-cassette efflux transporter BCRP (BCRP): substrate
